Laboratory results as given in patent US20260297088A1, “A 1,5-DIHYDRO-4H-PYRROLO[3,2-C] PYRIDIN-4-ONE FOR USE IN THE TREATMENT OF CANCER” (ANTARES THERAPEUTICS, INC., priority 2023, published 2026).
pIC50: −log10 of the molar value.

What was measured:
[1] = system: BaF3 ASV (EGFR exon 20 ASV Ins V769_D770); test: Ba/F3 cell viability (CellTiter-Glo), EGFR exon 20 ASV Ins V769_D770; assay type: cell-based, murine; settings: Mus musculus, Ba/F3 EGFR exon 20 ASV Ins V769_D770, 72 hours
Description: (§1) Cell lines are generated by transducing Ba/F3 cells with retroviruses containing vectors with EGFR WT, EGFR exon 20 NPG Ins D770_N771, EGFR exon 20 ASV Ins V769_D770, EGFR exon 20 SVD Ins D770_N771, or EGFR exon 20 FQEA Ins A763_V764 genes and a puromycin selection marker. Transduced cells are selected with puromycin for 7 days and are then be transferred into culture media without Interleukin 3 (IL3). EGFR WT cells are maintained with supplemental EGF. Surviving cells are confirmed to express EGFR by Western blot and maintained as a pool. The IC50 data are included in Table 6.
(§2) • 1 Cell seeding • 1.1 Cells are harvested from flask into cell culture medium and the cell number counted. • 1.2 Cells are diluted with culture medium to the desired density and 40 L of cell suspension is added into each well of 384-well cell culture plate and the seeding density is 600 cells/well. • 2 Compound preparation and treatment • 2.1 Test compounds are dissolved to 10 mM in a DMSO stock solution. 45 µL of stock solution is transferred to a 384 polypropylene plate (pp-plate). Perform 3-fold, 10-point dilution via transferring 15 L compound into 30 L DMSO using a TECAN (EVO200) liquid handler. • 2.2 Spin plates at room temperature at 1,000 RPM for 1 minute. • 2.3 Transfer 120 nL of diluted compound from compound source plate into the cell plate. • 2.4 After compound treatment for 72 hours, perform CTG detection for compound treatment plates as described in “Detection” section. • 3 Detection • 3.1 Plates are removed from incubators and equilibrated at room temperature for 15 minutes. • 3.2 Thaw the CellTiter Glo reagents and allow to equilibrate to room temperature before the experiment. • 3.3 Add 40 µL of CellTiter-Glo reagent into each well (at 1:1 to culture medium). Then place the plates at room temperature for 30 min followed by reading on EnVision. • 4 Data analysis • 4.1 Inhibition activity is calculated following the formula below:
(§3) [formula] • where HC is obtained from cells treated with 0.1% DMSO only; and LC is obtained from culture medium only. • 4.2 2. Calculate the IC50 by fitting the Curve using Xlfit (v5.3.1.3), equation 201:
(§4) [formula] • The IC50 date are included in Table 6.

[2] = system: BaF3 SVD (EGFR exon 20 SVD Ins D770_N771); test: Ba/F3 cell viability (CellTiter-Glo), EGFR exon 20 SVD Ins D770_N771; assay type: cell-based, murine; settings: Mus musculus, Ba/F3 EGFR exon 20 SVD Ins D770_N771, 72 hours
Description: as §1, §2, §3, §4

[3] = system: BaF3 NPG (EGFR exon 20 NPG Ins D770_N771); test: Ba/F3 cell viability (CellTiter-Glo), EGFR exon 20 NPG Ins D770_N771; assay type: cell-based, murine; settings: Mus musculus, Ba/F3 EGFR exon 20 NPG Ins D770_N771, 72 hours
Description: as §1, §2, §3, §4

BaF3 WT (EGFR WT) = test: Ba/F3 cell viability (CellTiter-Glo), EGFR WT; assay type: cell-based, murine; settings: Mus musculus, supplemental EGF, 72 hours
Description: as §1, §2, §3, §4

BaF3 L858R/C797S = test: Ba/F3 cell viability (CellTiter-Glo), EGFR L858R/C797S; assay type: cell-based, murine; settings: Mus musculus, 72 hours
[4] = system: EGFR L858R phosphorylation (pEGFR); test: Inhibitor activity on EGFR phosphorylation (pEGFR AlphaLISA), L858R; assay type: cell-based; settings: 2 hours
[5] = system: EGFR Del19 phosphorylation (pEGFR); test: Inhibitor activity on EGFR phosphorylation (pEGFR AlphaLISA), Del19; assay type: cell-based; settings: 2 hours
[6] = system: EGFR L858R/C797S phosphorylation (pEGFR); test: Inhibitor activity on EGFR phosphorylation (pEGFR AlphaLISA), L858R/C797S; assay type: cell-based; settings: 2 hours
[7] = system: EGFR phosphorylation (pEGFR) in CUTO14 cells; test: Inhibitor activity on EGFR phosphorylation (pEGFR AlphaLISA), CUTO14 cells; assay type: cell-based; settings: 2 hours
Description: EGFR mutant Ba/F3 cells were generated by transduction with retrovirus containing vectors expressing EGFR exon 20 NPG Ins D770_N771, EGFR exon 20 ASV Ins V769_D770, or EGFR exon 20 SVD Ins D770_N771 genes along with a puromycin selection marker. Transduced cells are selected with puromycin for 7 days and are then be transferred into culture media without Interleukin 3 (IL3). Surviving cells are confirmed to express EGFR by Western blot and maintained as a pool. CUTO14 cells were obtained from Dr. Robert C. Doebele at the University of Colorado. The IC50 data are included in Table 6.
• 1 Cell seeding • 1.1 Cells are harvested from flask into cell culture medium and the cell number counted. • 1.2 Cells are diluted with culture medium to the desired density and 40 μL of cell suspension is added into each well of 384-well cell culture plate and the seeding density is 50K cells/well (Ba/F3) or 12.5K cells/well (CUTO14). • 2 Compound preparation and treatment • 2.1 Test compounds are dissolved to 10 mM in a DMSO stock solution. 45 µL of stock solution is transferred to a 384 polypropylene plate (pp-plate). Perform 3-fold, 10-point dilution via transferring 15 L compound into 30 L DMSO using a TECAN (EVO200) liquid handler. • 2.2 Spin plates at room temperature at 1,000 RPM for 1 minute. • 2.3 Transfer 5 nL of diluted compound from compound source plate into the cell plate. • 2.4 After compound treatment for 2 hours, perform pEGFR detection by AlphaLISA for compound treatment plates as described in “Detection” section. • 3 Detection by pEGFR AlphaLISA (Perkin-Elmer) • 3.1 Plates are removed from incubators and equilibrated at room temperature for 10 minutes, and media was removed • 3.2 10 µL of lysis buffer is added and plates shaken at 600 rpm for 1 hr. • 3.3 Prepare acceptor mix just before use and dispense 5 μL of acceptor mix to all the wells. […] Mix well on the shaker, seal and wrap in aluminum foil and incubate 1.5 hrs at room temperature in the dark • 3.5 Transfer 18.5 μL mixture to OptiPlate 384, and read using an Envision.

BaF3 L858R = test: Ba/F3 cell viability (CellTiter-Glo), EGFR L858R; assay type: cell-based, murine; settings: Mus musculus, 72 hours
BaF3 Del19 = test: Ba/F3 cell viability (CellTiter-Glo), EGFR Del19; assay type: cell-based, murine; settings: Mus musculus, 72 hours
[8] = system: EGFR containing one or more mutations versus wild type EGFR; settings: compound of WO 2022/076831; cited from earlier work

Row | Structure (SMILES) | pIC50 [1] | pIC50 [2] | pIC50 [3] | pIC50 (BaF3 WT (EGFR WT)) | pIC50 (BaF3 L858R/C797S) | pIC50 [4] | pIC50 [5] | pIC50 [6] | pIC50 [7] | pIC50 (BaF3 L858R) | pIC50 (BaF3 Del19) | inhibition of mutant EGFR relative to wild type EGFR [8]
1 | COc1c(F)cccc1Nc1c(-c2ccnc(C)n2)[nH]c2c(CCO)c[nH]c(=O)c12 [Compound 6] | ≤ 6.00 | 6.00 to 7.00 | 6.00 to 7.00 | ≤ 6.00 | 6.00 to 7.00 | 6.00 to 7.00 | > 7.00 | > 7.00 |  |  |  | 
2 | COCCc1c[nH]c(=O)c2c(Nc3cccc(Cl)c3OC)c(-c3ccncn3)[nH]c12 [Compound 2] | 6.00 to 7.00 | > 7.00 | 6.00 to 7.00 | ≤ 6.00 | > 7.00 | > 7.00 | > 7.00 | > 7.00 | > 7.00 | > 7.00 | > 7.00 | 
3 | COCC[C@H]1CNC(=O)c2c1[nH]c(-c1ccnc(C)n1)c2Nc1cccc(Cl)c1OC [Compound 463b] |  |  |  |  |  |  |  |  |  |  |  | greater inhibition of EGFR containing one or more mutations relative to inhibition of wild type EGFR

More lines, main results first:

Row | pIC50 [1] | pIC50 [2] | pIC50 [3] | pIC50 (BaF3 WT (EGFR WT)) | pIC50 (BaF3 L858R/C797S) | pIC50 [4] | pIC50 [5] | pIC50 [6] | pIC50 [7] | pIC50 (BaF3 L858R) | pIC50 (BaF3 Del19) | Structure (SMILES) | inhibition of mutant EGFR relative to wild type EGFR [8]
4 | 6.00 to 7.00 | 6.00 to 7.00 | 6.00 to 7.00 | ≤ 6.00 | 6.00 to 7.00 | > 7.00 | > 7.00 | > 7.00 | 6.00 to 7.00 | > 7.00 | > 7.00 | COc1c(Cl)cccc1Nc1c(-c2ccnc(C)n2)[nH]c2c(CCO)c[nH]c(=O)c12 [Compound 5] | 
5 | 6.00 to 7.00 | 6.00 to 7.00 |  | ≤ 6.00 |  |  |  |  |  | > 7.00 | > 7.00 | COCCc1c[nH]c(=O)c2c(Nc3cccc(Cl)c3OC)c(-c3ccncc3F)[nH]c12 [Compound 3] | 
6 | 6.00 to 7.00 | 6.00 to 7.00 | 6.00 to 7.00 | ≤ 6.00 | > 7.00 | > 7.00 | > 7.00 | > 7.00 | > 7.00 |  |  | COCCc1c[nH]c(=O)c2c(Nc3cccc(F)c3OC)c(-c3ccnc(C)n3)[nH]c12 [Compound 4] | 
